“Also recorded” adds a separate entry of the source. Where no end group is shown, it is not given here.
Key:
[1] = system: biotinylated monoclonal antibody specific for DAEFRH (natural N-terminal Aβ42 sequence); assay: Inhibition assay (competition ELISA): mimotope peptides compete with plate-bound DAEFRH-BSA for the monoclonal antibody, Example 3 (FIGS. 2 and 3); type: binding, mice; settings: for inhibition of binding of the monoclonal antibody to the original epitope (in words): peptides at 50 to 0.0005 μg/ml, FIGS. 2 and 3; for Inhibitory capacity of mimotopes (Table 1): summary grade: strong, intermediate, weak, none
Procedure: (§1) FIGS. 2 and 3 describe the results of inhibition assays performed with mimotope peptides included in and obtained from the 5 libraries (as described). The mimotope peptides compete with the original epitope for recognition by the monoclonal antibody. Original epitope and mimotope peptides contain an additional C at the C-terminus for coupling to a protein carrier (if desired).
(§2) After blocking with PBS/BSA 1% (200 μl/well, 12 h, 4° C.), the plates are washed 3× times with PBS/Tween. Then, biotinylated monoclonal antibody (1:2000, 50 μl/well) and peptides (50 μl/well) at 50, 5, 0.5, 0.05, 0.005, and 0.0005 μg/ml are added for 20 min. at 37° C. The plates are washed 3× times with PBS/Tween and are incubated with horseradish peroxidase (HRP)-labeled streptavidin (100 μl/well, 30 min, RT). The plates are washed 5× times with PBS/Tween and are incubated with ABTS+H2O2 (0.1% w/v, 10 to 45 min) and the reaction is stopped with citric acid followed by photometric evaluation (wavelength 405 nm).

[2] = system: biotinylated monoclonal antibody specific for DAEFRH (natural N-terminal Aβ42 sequence); assay: Inhibition assay for additional mimotopes (competition ELISA), Example 4 (FIGS. 4 and 5); type: binding, mice; settings: for inhibition of binding of the monoclonal antibody to the original epitope (in words) / IC50 of inhibition of monoclonal antibody recognition of the original epitope: FIGS. 4 and 5; for Inhibitory capacity of mimotopes (Table 2): summary grade: strong, intermediate, weak, none; for IC50 of inhibition of monoclonal antibody recognition of the original epitope: plate-bound DAEFRH-BSA 0.1 μg/ml, peptides at different concentrations, 20 min, 37° C.
Procedure: as §1, with “4” for “2”, “5” for “3”, “C-terminus (position 7)” for “C-terminus”
as §2, with “different concentrations” for “50, 5, 0.5, 0.05, 0.005, and 0.0005 μg/ml”, “ABTS H2O2” for “ABTS+H2O2”

[3] = system: biotinylated DAEFRH-specific mAb; assay: ELISA with peptide libraries: detection of mimotopes by the DAEFRH-specific mAb; type: binding, mice; settings: mimotopes from peptide libraries 1, 2 and 3
Procedure: The ELISA with each of the peptide libraries have been carried out following standard protocols:
The peptide library is dissolved in 100% DMSO (final concentration 10 mg/ml).
The peptide solution is further diluted in PBS.
The peptide mixture is coated overnight (4° C.) onto ELISA plates (Nunc Maxisorp, Germany), starting with 500 μg/well, and titrated to 100 ng/well.
The plates are washed 3× times with PBS/Tween 20 (0.1% v/v).
The plates are blocked with PBS/BSA (2 h at room temperature).
The plates are washed 3× times with PBS/Tween.
The plates are incubated with biotinylated DAEFRH-specific mAb (DAEFRH sequence disclosed as SEQ ID NO: 1) (10 μg/ml in PBS) for 4 h at room temperature.
The plates are incubated with streptavidin-horseradish-peroxidase (30 min at room temperature).
The plates are washed 5× times with PBS/Tween.
The plates are incubated with ABTS+H2O2 (0.1% w/v; 10 to 45 min) and the reaction is stopped with citric acid followed by photometric evaluation (wavelength 405 nm).

[4] = target: DAEFRH-specific monoclonal antibody (mAb) produced according to example 1; assay: competition ELISA: soluble peptide vs plate-bound DAEFRH-C-BSA for biotinylated mAb, FIG. 5

inhibition of binding of the monoclonal antibody to the original epitope (in words) [1] | inhibition of binding of the monoclonal antibody to the original epitope (in words) [2] | Molecule | Inhibitory capacity of mimotopes (Table 1) [1] | also measured
block epitope recognition | – | N=C(N)NCCC[C@H](NC(=O)[C@H](Cc1ccccc1)NC(=O)[C@H](CCC(=O)O)NC(=O)[C@H](Cc1ccc(O)cc1)NC(=O)[C@@H](N)CC(=O)O)C(=O)NCC(=O)N[C@@H](CS)C(=O)O [Peptide 3007, DYEFRG] | strong | –
– | block epitope recognition | GREFRN [Peptide 4003] | – | concentration at which the peptide is only inhibitory ([2]; FIG. 4): 10 µg/mL; Inhibitory capacity of mimotopes (Table 2) [2]: weak
– | – | DVDYRR | – | detection by the monoclonal antibody produced according to example 1 [3]: can be detected
– | – | DLDYHR | – | detection by the monoclonal antibody produced according to example 1 [3]: can be detected
– | – | EVDYHR | – | detection by the monoclonal antibody produced according to example 1 [3]: can be detected
– | block epitope recognition | CC[C@H](C)[C@H](NC(=O)[C@H](CCCCN)NC(=O)[C@H](CC(C)C)NC(=O)[C@H](CCC(=O)O)NC(=O)[C@H](CCCNC(=N)N)NC(=O)[C@@H](N)CC(=O)O)C(=O)N[C@@H](CS)C(=O)O [Peptide 1237, DRELKI] | – | Inhibitory capacity of mimotopes (Table 2) [2]: weak
block epitope recognition | – | C[C@H](NC(=O)[C@@H](N)Cc1ccc(O)cc1)C(=O)N[C@@H](CCC(=O)O)C(=O)N[C@@H](Cc1ccccc1)C(=O)N[C@@H](CCCNC(=N)N)C(=O)NCC(=O)N[C@@H](CS)C(=O)O [Peptide 3005, YAEFRG] | intermediate | –
– | – | N=C(N)NCCC[C@H](NC(=O)[C@H](Cc1ccccc1)NC(=O)[C@H](CCC(=O)O)NC(=O)[C@H](Cc1ccccc1)NC(=O)[C@@H](N)CO)C(=O)NCC(=O)N[C@@H](CS)C(=O)O [Peptide 3009, SFEFRG] | weak | –
– | – | ELDYHR | – | detection by the monoclonal antibody produced according to example 1 [3]: can be detected
– | – | DIDYHR | – | detection by the monoclonal antibody produced according to example 1 [3]: can be detected
block epitope recognition | – | CC[C@H](C)[C@H](NC(=O)[C@H](CCCNC(=N)N)NC(=O)[C@H](CC(C)C)NC(=O)[C@H](CCC(=O)O)NC(=O)[C@H](Cc1c[nH]c2ccccc12)NC(=O)[C@@H](N)CC(=O)O)C(=O)N[C@@H](CS)C(=O)O [Peptide 3002, DWELRI] | intermediate | –
– | block epitope recognition | C[C@@H](O)[C@H](NC(=O)[C@H](CCCNC(=N)N)NC(=O)[C@H](Cc1ccccc1)NC(=O)[C@H](CCC(=O)O)NC(=O)[C@H](Cc1c[nH]c2ccccc12)NC(=O)[C@@H](N)CO)C(=O)N[C@@H](CS)C(=O)O [Peptide 4002, SWEFRT] | – | IC50 of inhibition of monoclonal antibody recognition of the original epitope [2]: less than 0.4 μg/ml; Inhibitory capacity of mimotopes (Table 2) [2]: strong
– | – | DLDYRR [DLDYRR (SEQ ID NO: 98)] | – | detection by the monoclonal antibody produced according to example 1 [3]: can be detected
block epitope recognition | – | CC[C@H](C)[C@H](NC(=O)[C@H](CCCNC(=N)N)NC(=O)[C@H](CC(C)C)NC(=O)[C@H](CCC(=O)O)NC(=O)[C@H](CCCCN)NC(=O)[C@@H](N)CC(=O)O)C(=O)N[C@@H](CS)C(=O)O [Peptide 3001, DKELRI] | strong | –
block epitope recognition | – | YREFRI [Peptide 3004] | weak | concentration at which the peptide is only inhibitory ([1]; FIG. 2): 50 µg/mL
block epitope recognition | – | C[C@H](NC(=O)[C@@H](N)CCC(=O)O)C(=O)N[C@@H](CCC(=O)O)C(=O)N[C@@H](Cc1ccccc1)C(=O)N[C@@H](CCCNC(=N)N)C(=O)NCC(=O)N[C@@H](CS)C(=O)O [Peptide 3006, EAEFRG] | strong | –
– | – | CC(C)C[C@H](NC(=O)[C@@H](N)CCC(=O)O)C(=O)N[C@@H](CCC(=O)O)C(=O)N[C@@H](Cc1ccccc1)C(=O)N[C@@H](CCCNC(=N)N)C(=O)NCC(=O)N[C@@H](CS)C(=O)O [Peptide 3008, ELEFRG] | weak | –
– | – | DIDYRR [DLDYRR (SEQ ID NO: 97)] | – | detection by the monoclonal antibody produced according to example 1 [3]: can be detected
– | block epitope recognition | N=C(N)NCCC[C@H](NC(=O)[C@H](Cc1ccccc1)NC(=O)[C@H](CCC(=O)O)NC(=O)[C@H](Cc1ccc(O)cc1)NC(=O)[C@@H](N)CCC(=O)O)C(=O)NCC(=O)N[C@@H](CS)C(=O)O [Peptide 1239, EYEFRG] | – | IC50 of inhibition of monoclonal antibody recognition of the original epitope [2]: more than 0.5 μg/ml; Inhibitory capacity of mimotopes (Table 2) [2]: intermediate
– | block epitope recognition | CC[C@H](C)[C@H](NC(=O)[C@H](CCCCN)NC(=O)[C@H](CC(C)C)NC(=O)[C@H](CCC(=O)O)NC(=O)[C@H](CCCCN)NC(=O)[C@@H](N)CC(=O)O)C(=O)N[C@@H](CS)C(=O)O [Peptide 1236, DKELKI] | – | Inhibitory capacity of mimotopes (Table 2) [2]: weak
– | – | DVDYHR | – | detection by the monoclonal antibody produced according to example 1 [3]: can be detected
– | block epitope recognition | CC[C@H](C)[C@H](NC(=O)[C@H](CCCNC(=N)N)NC(=O)[C@H](CC(C)C)NC(=O)[C@H](CCC(=O)O)NC(=O)[C@H](CCCNC(=N)N)NC(=O)[C@@H](N)CC(=O)O)C(=O)N[C@@H](CS)C(=O)O [Peptide 1235, DRELRI] | – | Inhibitory capacity of mimotopes (Table 2) [2]: strong
– | – | EIDYHR | – | detection by the monoclonal antibody produced according to example 1 [3]: can be detected
– | – | DWEFRDAC [Peptide 1241 DWEFRDA] | – | IC50 [4]: < 0.5 µg/mL
– | – | DRELRIC [Peptide 1235 DRELRI] | – | IC50 [4]: < 0.5 µg/mL
– | – | DKELRC [Peptide 1238 DKELR] | – | IC50 [4]: < 0.5 µg/mL

Molecule | inhibition of binding of the monoclonal antibody to the original epitope (in words) [1] | inhibition of binding of the monoclonal antibody to the original epitope (in words) [2] | Inhibitory capacity of mimotopes (Table 1) [1] | also measured
DIGWRG [Peptide 3011] | not inhibitory at the concentrations tested | – | none | –
WHWSWR [Peptide 4004] | – | not able to inhibit binding of the monoclonal antibody to the original epitope | – | Inhibitory capacity of mimotopes (Table 2) [2]: none
C[C@H](NC(=O)[C@H](CC(=O)O)NC(=O)[C@H](CCCNC(=N)N)NC(=O)[C@H](Cc1ccccc1)NC(=O)[C@H](CCC(=O)O)NC(=O)[C@H](Cc1c[nH]c2ccccc12)NC(=O)[C@@H](N)CC(=O)O)C(=O)N[C@@H](CS)C(=O)O [Peptide 1241, DWEFRDA] | – | block epitope recognition | – | Inhibitory capacity of mimotopes (Table 2) [2]: strong
YREFFI [Peptide 3003] | not able to inhibit binding of the monoclonal antibody to the original epitope | – | none | –
KKELRI [Peptide 1234] | – | hardly inhibitory at the concentrations tested | – | Inhibitory capacity of mimotopes (Table 2) [2]: none
DISFRG [Peptide 3010] | not inhibitory at the concentrations tested | – | none | –
DAEFRH (not fully specified (C-terminus)) [Peptide 1737, reference compound] | inhibits recognition by the monoclonal antibody; also recorded: can successfully compete | inhibits recognition by the monoclonal antibody; also recorded: can successfully compete | – | –

Source: US7732568B2, “Methods for preventing and treating Alzheimer's disease” (AFFIRIS Forschungs-und Entwicklungs GmbH, priority 2003, dated 2010)
